Experimental data from patent US20060216336A1, “Transdermal therapeutic system for Parkinson's Disease” (priority 2002, published 2006).

Assay: Multiple dose trial with rotating patch application sites in early-stage Parkinson's disease: rotigotine pharmacokinetics (Example 4)
Source text: Each day, a fresh patch was placed on a new skin site (abdomen, flank, upper arm, shoulder, thigh, hip) in a rotating order. The silicone transdermal patches were made in accordance with the teachings of U.S. Patent Application Publication No. US 2003/0026830 at paragraphs 38-42, U.S. Patent Application Publication No. US 2003/0027793 at paragraphs 37-41 and U.S. Pat. No. 6,884,434, columns 5-6, Example 2 and comprised the following layers and components:
The trial consisted of an Eligibility Assessment (EA), a 24-day Titration Phase (4.5 to 18.0 mg/day doses; incremental increases of 4.5mg/day every 6 days), a 6-day Maintenance Phase (18.0 mg/day dose), a 6-day De-escalation Phase (13.5/9.0/4.5mg/day decreasing dose every 2 days), and a Safety Follow-Up visit 2 days following the last dose.
The silicone transdermal patches were made in accordance with the teachings of U.S. Patent Application Publication No. US 2003/0026830 at paragraphs 3842 and U.S. Patent Application Publication No. US 2003/0027793 at paragraphs 3741 comprised the following layers and components as disclosed above
The 18.0 mg/day dose used 2×20 cm^2 patches. Initial doses were 4.5 mg/day with weekly increases of 4.5 mg/day to a maximum target dose of 18.0 mg/day.

[1] = application site Abdomen, normalized for body weight and apparent dose, Day 27 and Day 30 combined (PKS)
[2] = application site Flank, normalized for body weight and apparent dose, Day 27 and Day 30 combined (PKS)
[3] = application site Hip, normalized for body weight and apparent dose, Day 27 and Day 30 combined (PKS)
[4] = application site Shoulder, normalized for body weight and apparent dose, Day 27 and Day 30 combined (PKS)
[5] = application site Thigh, normalized for body weight and apparent dose, Day 27 and Day 30 combined (PKS)
[6] = application site Upper arm, normalized for body weight and apparent dose, Day 27 and Day 30 combined (PKS)

Compound: CCCN(CCc1cccs1)[C@H]1CCc2c(O)cccc2C1 [rotigotine, (6S)-6{propyl[2-(2-thienyl)ethyl]amino}-5,6,7,8-tetrahydro-1-naphthalenol]
- Time to Maximum Concentration (Day 30, site F (flank), Geo. Mean): 15.43 h
- Time to Maximum Concentration (Days 27 and 30 combined, site UA (upper arm), Mean): 12.71 h
- AUC0-t,ss,normalized, Range [1]: 89.3 to 952.1 ng·kg·h/mL/mg
- Cmax,ss, normalized, Geometric mean (SD) [1]: 16.367 (1.6473) ng * kg/mL/mg
- Cmax,ss, normalized, Median [1]: 14.906 ng·kg/mL/mg
- Cmax,ss, normalized, Geometric mean (SD) [2]: 17.168 (1.5894) ng * kg/mL/mg
- Cmax,ss, normalized, Mean [2]: 18.976 ng·kg/mL/mg
- Cmax,ss, normalized, Median [2]: 16.666 ng·kg/mL/mg
- Cmax,ss, normalized, Geometric mean (SD) [3]: 17.253 (1.6685) ng * kg/mL/mg
- Cmax,ss, normalized, Mean [3]: 19.956 ng·kg/mL/mg
- Cmax,ss, normalized, Median [3]: 15.577 ng·kg/mL/mg
- Cmax,ss, normalized, Geometric mean (SD) [4]: 14.499 (1.5627) ng * kg/mL/mg
- Cmax,ss, normalized, Mean [4]: 15.898 ng·kg/mL/mg
- Cmax,ss, normalized, Median [4]: 15.328 ng·kg/mL/mg
- Cmax,ss, normalized, Geometric mean (SD) [5]: 16.046 (1.5548) ng * kg/mL/mg
- Cmax,ss, normalized, Mean [5]: 17.793 ng·kg/mL/mg
- Cmax,ss, normalized, Median [5]: 15.506 ng·kg/mL/mg
- Cmax,ss, normalized, Geometric mean (SD) [6]: 16.508 (1.4597) ng * kg/mL/mg
- Cmax,ss, normalized, Mean [6]: 17.727 ng·kg/mL/mg
- Cmax,ss, normalized, Median [6]: 15.499 ng·kg/mL/mg
- plasma concentration at Time 0 (Ctrough) (human, in vivo): about 1 ng/mL
- concentration at 30 day (human, in vivo, 18 mg/day, Average Concentration, Day 30, site UA (upper arm), Median): 0.895 ng/mL
- concentration at […] (human, in vivo, 18 mg/day, rotigotine plasma concentration Geo. Mean, Hip, Day 27, 23.5 H): 0.875 ng/mL
- concentration at […] (human, in vivo, 18 mg/day, rotigotine plasma concentration Geo. Mean, Hip, Day 30, 23.5 H): 0.758 ng/mL
- concentration at […] (human, in vivo, 18 mg/day, rotigotine plasma concentration Geo. Mean, Shoulder, Day 30, 23.5 H): 0.851 ng/mL
- concentration at […] (human, in vivo, 18 mg/day, rotigotine plasma concentration Geo. Mean, Shoulder, Days 27 & 30 Combined, 23.5 H): 0.82 ng/mL
- concentration at […] (human, in vivo, 18 mg/day, rotigotine plasma concentration Geo. Mean, Thigh, Day 30, 23.5 H): 0.656 ng/mL
- concentration at 18 h (human, in vivo, 18 mg/day, rotigotine plasma concentration Geo. Mean, Thigh, Days 27 & 30 Combined, 18 H): 0.895 ng/mL
- concentration at […] (human, in vivo, 18 mg/day, rotigotine plasma concentration Geo. Mean, Thigh, Days 27 & 30 Combined, 23.5 H): 0.639 ng/mL
- concentration at […] (human, in vivo, 18 mg/day, rotigotine plasma concentration Geo. Mean, Upper Arm, Day 30, 23.5 H): 0.833 ng/mL
- concentration at […] (human, in vivo, 18 mg/day, rotigotine plasma concentration Geo. Mean, Upper Arm, Days 27 & 30 Combined, 23.5 H): 0.789 ng/mL
- concentration at […] (human, in vivo, 18 mg/day, rotigotine plasma concentration Max, Hip, Day 27, 23.5 H): 1.75 ng/mL
- concentration at […] (human, in vivo, 18 mg/day, rotigotine plasma concentration Max, Hip, Day 30, 23.5 H): 1.35 ng/mL
- concentration at […] (human, in vivo, 18 mg/day, rotigotine plasma concentration Max, Hip, Days 27 & 30 Combined, 23.5 H): 1.75 ng/mL
- concentration at […] (human, in vivo, 18 mg/day, rotigotine plasma concentration Max, Shoulder, Day 30, 23.5 H): 3.01 ng/mL
- concentration at […] (human, in vivo, 18 mg/day, rotigotine plasma concentration Max, Shoulder, Days 27 & 30 Combined, 23.5 H): 3.01 ng/mL
- concentration at […] (human, in vivo, 18 mg/day, rotigotine plasma concentration Max, Thigh, Day 30, 23.5 H): 1.59 ng/mL
- concentration at […] (human, in vivo, 18 mg/day, rotigotine plasma concentration Max, Thigh, Days 27 & 30 Combined, 23.5 H): 1.59 ng/mL
- concentration at […] (human, in vivo, 18 mg/day, rotigotine plasma concentration Max, Upper Arm, Day 27, 23.5 H): 1.88 ng/mL
- concentration at […] (human, in vivo, 18 mg/day, rotigotine plasma concentration Max, Upper Arm, Day 30, 23.5 H): 1.67 ng/mL
- concentration at […] (human, in vivo, 18 mg/day, rotigotine plasma concentration Max, Upper Arm, Days 27 & 30 Combined, 23.5 H): 1.88 ng/mL
- concentration at […] (human, in vivo, 18 mg/day, rotigotine plasma concentration Mean, Hip, Day 27, 23.5 H): 0.96 ng/mL
- concentration at […] (human, in vivo, 18 mg/day, rotigotine plasma concentration Mean, Hip, Day 30, 23.5 H): 0.82 ng/mL
- concentration at […] (human, in vivo, 18 mg/day, rotigotine plasma concentration Mean, Hip, Days 27 & 30 Combined, 23.5 H): 0.89 ng/mL
- concentration at […] (human, in vivo, 18 mg/day, rotigotine plasma concentration Mean, Shoulder, Day 30, 23.5 H): 1.02 ng/mL
- concentration at […] (human, in vivo, 18 mg/day, rotigotine plasma concentration Mean, Shoulder, Days 27 & 30 Combined, 23.5 H): 0.966 ng/mL
- concentration at […] (human, in vivo, 18 mg/day, rotigotine plasma concentration Mean, Thigh, Day 30, 23.5 H): 0.784 ng/mL
- concentration at […] (human, in vivo, 18 mg/day, rotigotine plasma concentration Mean, Thigh, Days 27 & 30 Combined, 23.5 H): 0.735 ng/mL
- concentration at […] (human, in vivo, 18 mg/day, rotigotine plasma concentration Mean, Upper Arm, Day 27, 23.5 H): 0.936 ng/mL
- concentration at […] (human, in vivo, 18 mg/day, rotigotine plasma concentration Mean, Upper Arm, Day 30, 23.5 H): 0.924 ng/mL
- concentration at […] (human, in vivo, 18 mg/day, rotigotine plasma concentration Mean, Upper Arm, Days 27 & 30 Combined, 23.5 H): 0.93 ng/mL
- concentration at […] (human, in vivo, 18 mg/day, rotigotine plasma concentration Median, Hip, Day 27, 23.5 H): 0.957 ng/mL
- concentration at […] (human, in vivo, 18 mg/day, rotigotine plasma concentration Median, Hip, Day 30, 23.5 H): 0.692 ng/mL
- concentration at […] (human, in vivo, 18 mg/day, rotigotine plasma concentration Median, Shoulder, Day 30, 23.5 H): 0.848 ng/mL
- concentration at […] (human, in vivo, 18 mg/day, rotigotine plasma concentration Median, Shoulder, Days 27 & 30 Combined, 23.5 H): 0.799 ng/mL
- concentration at […] (human, in vivo, 18 mg/day, rotigotine plasma concentration Median, Thigh, Day 30, 23.5 H): 0.68 ng/mL
- concentration at […] (human, in vivo, 18 mg/day, rotigotine plasma concentration Median, Thigh, Days 27 & 30 Combined, 23.5 H): 0.668 ng/mL
- concentration at […] (human, in vivo, 18 mg/day, rotigotine plasma concentration Median, Upper Arm, Day 30, 23.5 H): 0.899 ng/mL
- concentration at […] (human, in vivo, 18 mg/day, rotigotine plasma concentration Median, Upper Arm, Days 27 & 30 Combined, 23.5 H): 0.899 ng/mL
- concentration at […] (human, in vivo, 18 mg/day, rotigotine plasma concentration Min, Hip, Day 27, 23.5 H): 0.261 ng/mL
- concentration at […] (human, in vivo, 18 mg/day, rotigotine plasma concentration Min, Hip, Day 30, 23.5 H): 0.461 ng/mL
- concentration at […] (human, in vivo, 18 mg/day, rotigotine plasma concentration Min, Hip, Days 27 & 30 Combined, 23.5 H): 0.261 ng/mL
- concentration at […] (human, in vivo, 18 mg/day, rotigotine plasma concentration Min, Shoulder, Day 30, 23.5 H): 0.405 ng/mL
- concentration at […] (human, in vivo, 18 mg/day, rotigotine plasma concentration Min, Shoulder, Days 27 & 30 Combined, 23.5 H): 0.387 ng/mL
- concentration at […] (human, in vivo, 18 mg/day, rotigotine plasma concentration Min, Thigh, Day 30, 23.5 H): 0.152 ng/mL
- concentration at […] (human, in vivo, 18 mg/day, rotigotine plasma concentration Min, Thigh, Days 27 & 30 Combined, 23.5 H): 0.152 ng/mL
